Where “and” joins values, the source holds several entries; their conditions need not be identical. Equal entries are not always repeated.
System: CBDRx Cherry hemp clones
Experiment: Foliar spray of MS, MDJ and MS+MDJ on hemp clones: biomass, cannabinoid and terpene analysis
Type: in vivo, Cannabis spp.
Design: CBDA / CBD / THCA / Total CBG / Total cannabinoids: unit not given here
Conditions: for plants died before the end of the experiment: four plants per treatment group
Method: Methyl salicylate (MS) is an antagonistic compound to the jasmonates. To investigate the effect of MS alone and in conjunction with MDJ, MS (CAS No.: 119-36-8), MDJ, and the combination (MS+MDJ) were applied by foliar spray to CBDRx Cherry hemp clones once per week during both vegetative and flowering phases. Plants were transplanted into 1-gallon pots with Red's soil and put into vegetative light cycle (18L/6D). […] Plants were grown under a total of 12 Boost (Thrive Agritech, NY) 130-watt LED lights set to 18L: 6D photoperiod during the vegetative phase (2 weeks) and this was followed by a 12L: 12D photoperiod during the flowering phase (7 weeks), using the same lighting fixtures. Throughout the nine weeks, all plants were watered when needed with Jack's nutrients.
MS or MDJ treatments were applied at the following concentrations: [1 mM], [4.25 mM], [7.5 mM] and [10 mM]. Each concentration was prepared from a one molar stock solution diluted with RO water and TWEEN®-20 (1M stock) was added. Each plant was sprayed till dripping, which was approximately 50-75 ml. To apply the combination of the two biochemicals, MS and MDJ were sprayed separately but simultaneously, to ensure each compound was applied evenly onto the plant. Each compound was applied using a SPRAYMASTER Chemical Sprayer (King of Prussia, Pa.).
Plants were harvested two months after transplant. After harvesting, plants were air dried at room temperature for two weeks. Once plants were sufficiently dry, above ground dry weights were recorded and dried flower samples were collected and sent to a third-party lab for terpene and cannabinoid analysis. Two plants (#3 and #4) in treatment group MDJ [7.5] mM, two plants (#3 and #4) in MS [4.25] mM, one plant (#4) in MS [7.5], and one plant (#4) in MDJ [10] died before the end of the experiment.

[1] = 1 mM foliar spray, Avg. of group
[2] = 1 mM foliar spray, individual plant
[3] = 4.25 mM foliar spray, Avg. of group
[4] = 4.25 mM foliar spray, individual plant
[5] = 7.5 mM foliar spray, Avg. of group
[6] = 7.5 mM foliar spray, individual plant
[7] = 10 mM foliar spray, Avg. of group
[8] = 10 mM foliar spray, individual plant

In the case of CCCCCC1C(=O)CCC1CC(=O)OC (centres unmarked) [MDJ, methyl dihydrojasmonate], the Alpha-bisabolol [1] is reported as 0.109 % wt/wt, the Alpha-humulene [1] is reported as 0.08163 % wt/wt and the Beta-caryophyllene [1] is reported as 0.2027 % wt/wt. For the same compound, the CBCA [1] was 0.64, the CBD [1] was 0.105 and the CBDA [1] was 12.99. The CBGA [1] was 0.3425, the Limonene [1] was 0.1362 % wt/wt and the THCA [1] was 0.565. For the same compound, the “Total CBD” value [1] was 11.4975, the “Total CBG” value [1] was 4.2075 and the Total cannabinoids [1] was 14.6425. For the same compound, the “Total d9THC” value [1] was 0.495, the alpha-pinene [1] was 0.02277 % wt/wt and the beta-myrcene [1] was 1.04 % wt/wt. For the same compound, the beta-pinene [1] was 0.0188 % wt/wt, the total terpenes [1] was 1.7075 % wt/wt and the Alpha-bisabolol [2] was 0.1238 % wt/wt and 0.1069 % wt/wt and 0.094 % wt/wt and 0.1113 % wt/wt. For the same compound, the Alpha-humulene [2] was 0.0944 % wt/wt and 0.0784 % wt/wt and 0.0831 % wt/wt and 0.0706 % wt/wt, the Beta-caryophyllene [2] was 0.2352 % wt/wt and 0.2003 % wt/wt and 0.2076 % wt/wt and 0.1676 % wt/wt and the CBCA [2] was 0.57 and 0.71 and 0.64 (2×). The CBD [2] was 0.16 and 0 and 0.12 and 0.14, the CBDA [2] was 11.86 and 14.25 and 13.12 and 12.73 and the CBGA [2] was 0.28 and 0.44 and 0.34 and 0.31. The Limonene [2] was 0.1352 % wt/wt and 0.1309 % wt/wt and 0.1572 % wt/wt and 0.1215 % wt/wt, the THCA [2] was 0.52 and 0.63 and 0.57 and 0.54 and the “Total CBD” value [2] was 10.55 and 12.5 and 11.63 and 11.31. For the same compound, the “Total CBG” value [2] was 0.24 and 16.03 and 0.29 and 0.27, the Total cannabinoids [2] was 13.39 and 16.03 and 14.79 and 14.36 and the “Total d9THC” value [2] was 0.45 and 0.55 and 0.5 and 0.48. For the same compound, the alpha-pinene [2] was 0.0293 % wt/wt and 0.0283 % wt/wt and 0.0335 % wt/wt and 0 % wt/wt, the beta-myrcene [2] was 0.9825 % wt/wt and 1.0146 % wt/wt and 1.2146 % wt/wt and 0.9497 % wt/wt and the beta-pinene [2] was 0.0269 % wt/wt and 0.0238 % wt/wt and 0.0245 % wt/wt and 0 % wt/wt. For the same compound, the total terpenes [2] was 1.73 % wt/wt and 1.67 % wt/wt and 1.92 % wt/wt and 1.51 % wt/wt, the Alpha-bisabolol [3] was 0.1242 % wt/wt and the Alpha-humulene [3] was 0.0859 % wt/wt. For the same compound, the Beta-caryophyllene [3] was 0.2106 % wt/wt, the CBCA [3] was 0.6275 and the CBD [3] was 0.29. It also gave a CBDA [3] of 12.9825, a CBGA [3] of 0.2975 and a Limonene [3] of 0.1168 % wt/wt. For the same compound, the THCA [3] was 0.565, the “Total CBD” value [3] was 11.6725 and the “Total CBG” value [3] was 0.2625. The Total cannabinoids [3] was 14.7625, the “Total d9THC” value [3] was 0.495 and the alpha-pinene [3] was 0.0132 % wt/wt. The beta-myrcene [3] was 0.9189 % wt/wt, the beta-pinene [3] was 0.02055 % wt/wt and the total terpenes [3] was 1.5875 % wt/wt. The Alpha-bisabolol [4] was 0.1239 % wt/wt and 0.1229 % wt/wt and 0.1255 % wt/wt and 0.1245 % wt/wt, the Alpha-humulene [4] was 0.0851 % wt/wt and 0.0781 % wt/wt and 0.0861 % wt/wt and 0.0943 % wt/wt and the Beta-caryophyllene [4] was 0.2071 % wt/wt and 0.1897 % wt/wt and 0.208 % wt/wt and 0.2377 % wt/wt. The CBCA [4] was 0.63 (2×) and 0.65 and 0.6, the CBD [4] was 0.28 and 0.36 and 0.38 and 0.14 and the CBDA [4] was 13.17 (2×) and 12.87 and 12.72. For the same compound, the CBGA [4] was 0.33 and 0.31 and 0.26 and 0.29, the Limonene [4] was 0.1049 % wt/wt and 0.1307 % wt/wt and 0.0983 % wt/wt and 0.1334 % wt/wt and the THCA [4] was 0.57 (2×) and 0.56 (2×). The “Total CBD” value [4] was 11.83 and 11.9 and 11.67 and 11.29, the “Total CBG” value [4] was 0.29 and 0.27 and 0.23 and 0.26 and the Total cannabinoids [4] was 14.98 and 15.06 and 14.7 and 14.31. The “Total d9THC” value [4] was 0.5 (2×) and 0.49 (2×), the alpha-pinene [4] was 0 % wt/wt (2×) and 0.0253 % wt/wt and 0.0275 % wt/wt and the beta-myrcene [4] was 0.8032 % wt/wt and 1.0724 % wt/wt and 0.7447 % wt/wt and 1.0552 % wt/wt. The beta-pinene [4] was 0.0189 % wt/wt and 0.021 % wt/wt and 0.019 % wt/wt and 0.0233 % wt/wt, the total terpenes [4] was 1.44 % wt/wt and 1.73 % wt/wt and 1.38 % wt/wt and 1.8 % wt/wt and the Alpha-bisabolol [5] was 0.112 % wt/wt. The Alpha-humulene [5] was 0.08165 % wt/wt, the Beta-caryophyllene [5] was 0.2043 % wt/wt and the CBCA [5] was 0.675. For the same compound, the CBD [5] was 0.125, the CBDA [5] was 13.16 and the CBGA [5] was 0.365. For the same compound, the Limonene [5] was 0.09595 % wt/wt, the THCA [5] was 0.575 and the “Total CBD” value [5] was 11.665. The “Total CBG” value [5] was 0.315, the Total cannabinoids [5] was 14.9 and the “Total d9THC” value [5] was 0.505. For the same compound, the alpha-pinene [5] was 0 % wt/wt, the beta-myrcene [5] was 0.7442 % wt/wt and the beta-pinene [5] was 0.01015 % wt/wt. The total terpenes [5] was 1.345 % wt/wt, the “plants died before the end of the experiment” value (7.5 mM foliar spray) was “Two plants” and the Alpha-bisabolol [6] was 0.1165 % wt/wt and 0.1076 % wt/wt. The Alpha-humulene [6] was 0.0802 % wt/wt and 0.0831 % wt/wt, the Beta-caryophyllene [6] was 0.2 % wt/wt and 0.2086 % wt/wt and the CBCA [6] was 0.63 and 0.72. The CBD [6] was 0.14 and 0.11, the CBDA [6] was 12.43 and 13.89 and the CBGA [6] was 0.36 and 0.37. The Limonene [6] was 0.0965 % wt/wt and 0.0954 % wt/wt, the THCA [6] was 0.53 and 0.62 and the “Total CBD” value [6] was 11.04 and 12.29. For the same compound, the “Total CBG” value [6] was 0.31 and 0.32, the Total cannabinoids [6] was 14.09 and 15.71 and the “Total d9THC” value [6] was 0.47 and 0.54. For the same compound, the alpha-pinene [6] was 0 % wt/wt, the beta-myrcene [6] was 0.7818 % wt/wt and 0.7066 % wt/wt and the beta-pinene [6] was 0.0203 % wt/wt and 0 % wt/wt. For the same compound, the total terpenes [6] was 1.39 % wt/wt and 1.3 % wt/wt, the Alpha-bisabolol [7] was 1.477 % wt/wt and the Alpha-humulene [7] was 0.1323 % wt/wt. The Beta-caryophyllene [7] was 0.0874 % wt/wt, the CBCA [7] was 0.643 and the CBD [7] was 0.24. The CBDA [7] was 12.936, the CBGA [7] was 0.33 and the Limonene [7] was 0.2188 % wt/wt. For the same compound, the THCA [7] was 0.56, the “Total CBD” value [7] was 11.58 and the “Total CBG” value [7] was 0.29. For the same compound, the Total cannabinoids [7] was 14.71, the “Total d9THC” value [7] was 0.493 and the alpha-pinene [7] was 0.023 % wt/wt. The beta-myrcene [7] was 0.1067 % wt/wt, the beta-pinene [7] was 0.8058 % wt/wt and the total terpenes [7] was 0.023 % wt/wt. For the same compound, the “plants died before the end of the experiment” value (10 mM foliar spray) was “one plant”, the Alpha-bisabolol [8] was 0.1507 % wt/wt and 0.143 % wt/wt and 0.1033 % wt/wt and the Alpha-humulene [8] was 0.0955 % wt/wt and 0.0751 % wt/wt and 0.0916 % wt/wt. The Beta-caryophyllene [8] was 0.2372 % wt/wt and 0.1978 % wt/wt and 0.2214 % wt/wt, the CBCA [8] was 0.62 and 0.71 and 0.6 and the CBD [8] was 0.18 and 0.34 and 0.2. For the same compound, the CBDA [8] was 12.76 and 14.33 and 11.72, the CBGA [8] was 0.26 and 0.41 and 0.32 and the Limonene [8] was 0.1165 % wt/wt and 0.0884 % wt/wt and 0.1154 % wt/wt. For the same compound, the THCA [8] was 0.56 and 0.62 and 0.5, the “Total CBD” value [8] was 11.36 and 12.9 and 10.48 and the “Total CBG” value [8] was 0.23 and 0.36 and 0.28. The Total cannabinoids [8] was 14.38 and 16.41 and 13.34, the “Total d9THC” value [8] was 0.49 and 0.55 and 0.44 and the alpha-pinene [8] was 0 % wt/wt. For the same compound, the beta-myrcene [8] was 0.8838 % wt/wt and 0.6844 % wt/wt and 0.8492 % wt/wt, the beta-pinene [8] was 0.0249 % wt/wt and 0.0217 % wt/wt and 0.0224 % wt/wt and the total terpenes [8] was 1.62 % wt/wt and 1.3 % wt/wt and 1.51 % wt/wt. For the same compound, the “plant growth effects on clonal hemp plants in the vegetative stage” value (all concentrations (1-10 mM), compared to all tested concentrations of MS) was “beneficial plant growth effects” and the total terpene content (application of 1 mM or 4.25 mM) was “increased”.

From patent US11638427B2, “Methods and compositions for altering secondary metabolites in plants” (Impello Biosciences, Inc, priority 2020, dated 2023)
